Earlier results, collected in patent US20130280331A1, “Depot Compositions with multiple drug release rate controls and uses thereof” (Durect Corporation, priority 2001, published 2013).

reported solubility in water: 7.17 grams in 100 ml of water
Compound: CC(=O)OCC(COC(C)=O)OC(C)=O [triacetin]
